Test results: US12612412B2, “Antiviral heterocyclic compounds” (Enanta Pharmaceuticals, Inc., priority 2021, dated 2026)

How the values were obtained:
[1] = system: genotype A, "Long" strain RSV; experiment: RSV-A assay (CPE protection in Hep-2 cells, ATPlite readout); assay type: cell-based, Human respiratory syncytial virus (HRSV); conditions: human respiratory syncytial virus, RSV-A Long strain, MOI 0.1, CPE protection, read-out: Human RSV-A (“Long”) EC50
Method in brief: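 Hep-2 cells (8,000/well) were treated with 2-fold serial compound dilutions in duplicate and infected with RSV at MOI 0.1. After 5 days, protection from cytopathic effect was measured as cell viability by ATPlite luminescence, and EC50 values were derived.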

[2] = system: HMPV clinical isolate TN/1501/A1; experiment: HMPV antiviral assay Method-B (clinical isolate TN/1501/A1 in LLC-MK2 cells, ATP-Lite readout); assay type: cell-based, Human metapneumovirus (HMPV); conditions: human metapneumovirus, LLC-MK2, 144 h, hMPV WT1501 (clinical isolate TN/1501/A1), 6 days
Method in brief: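 EC50 derived by four-parameter logistic fit of percent cell health, measured by ATP-Lite luminescence and normalised to virus-only and uninfected-cell controls. Compounds run in duplicate from 10 μM top, 3-fold, 10 points. Infection: LLC-MK2 cells, MOI 0.014, 2 μg/mL final TPCK-trypsin, serum-free, 6 days at 37° C.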

SMILES	EC50 [1] [nM]	EC50 [2] [nM]
COc1cc(C(=O)NC[C@](O)(c2nc(-c3ccc(F)cc3)c3c(c2F)[C@@](C)(C(N)=O)CO3)C(F)(F)F)cc2cn(C3CC3)nc12 [Example 851]	< 200	< 500
COc1cc(C(=O)NC[C@](O)(c2nc(-c3ccc(F)cc3)c3c(c2F)[C@](C)(C(N)=O)CO3)C(F)(F)F)cc2cn(C(F)F)nc12 [Example 852]	< 200	> 500
COc1cc(C(=O)NC[C@](O)(c2nc(-c3ccc(F)cc3)c3c(c2F)[C@@](C)(C(N)=O)CO3)C(F)(F)F)cc2cn(C(F)F)nc12 [Example 853]	< 200	< 500
C[C@]1(C(N)=O)COc2c1cc([C@@](O)(CNC(=O)c1cc(Cl)c3nn(C(F)F)cc3c1)C1CC1)nc2-c1ccc2c(c1)OC(F)(F)O2 [Example 856]	< 200	< 500
COc1cc(C(=O)NC[C@](O)(c2nc(-c3ccc4c(c3)OC(F)(F)O4)c3c(c2F)[C@@](C)(C(N)=O)CO3)C2CC2)cc2cn(C3CC3)nc12 [Example 857]	< 200	< 500
C[C@]1(C(N)=O)COc2c(-c3ccc4c(c3)OC(F)(F)O4)nc([C@@](O)(CNC(=O)c3cc(Cl)c4nn(C5CC5)cc4c3)C3CC3)c(F)c21 [Example 858]	< 200	< 500
COc1cc(C(=O)NC[C@](O)(c2nc(-c3ccc4c(c3)OC(F)(F)O4)c3c(c2F)[C@@](C)(C(N)=O)CO3)C2CC2)cc2cn(C3(F)CC3)nc12 [Example 859]	< 200	< 500
COc1cc(C(=O)NC[C@](O)(c2nc(-c3ccc4c(c3)OC(F)(F)O4)c3c(c2F)[C@@](C)(C(N)=O)CO3)C2CC2)cc2cn(C(F)F)nc12 [Example 860]	< 200	< 500
COc1cc(C(=O)NC[C@](O)(c2nc(-c3ccc4c(c3)OC(F)(F)O4)c3c(c2F)[C@@](C)(C(N)=O)CO3)C2CC2)cc2cc(Cl)c(C)nc12 [Example 861]	< 200	< 500
COc1cc(C(=O)NC[C@](O)(c2nc(-c3cc(Cl)c(F)cc3F)c3c(c2F)[C@@](C)(C(N)=O)CO3)C2CC2)cc2cn(C3CC3)nc12 [Example 862]	< 200	< 500
COc1cc(C(=O)NC[C@](O)(c2cc3c(c(-c4ccc(F)c(C(F)(F)F)c4)n2)OC[C@]3(C)C(N)=O)C2CC2)cc2cn(C3CC3)nc12 [Example 871]	< 200	< 500
COc1cc(C(=O)NC[C@](O)(c2cc3c(c(-c4ccc(F)cc4Cl)n2)OC[C@]3(C)C(N)=O)C2CC2)cc2cn(C3CC3)nc12 [Example 872]	< 200	< 500
COc1cc(C(=O)NC[C@](O)(c2cc3c(c(-c4ccc(Cl)cc4F)n2)OC[C@]3(C)C(N)=O)C2CC2)cc2cn(C3CC3)nc12 [Example 873]	< 200	< 500
COc1cc(C(=O)NC[C@](O)(c2cc3c(c(-c4ccc(F)cc4)n2)OC[C@]3(C)C(N)=O)C(F)(F)F)cc2nn(C3CC3)cc12 [Example 874]	> 200	> 500
COc1cc(C(=O)NC[C@](O)(c2cc3c(c(-c4ccc(F)cc4)n2)OC[C@]3(C)C(N)=O)C(F)(F)F)cc2c(=O)n(C3CC3)[nH]c12 [Example 876]	> 200	> 500
C[C@]1(C(N)=O)COc2c1cc([C@@](O)(CNC(=O)c1cc(OCC3CC3)c3nn(C4(F)CC4)cc3c1)C(F)(F)F)nc2-c1ccc(F)cc1 [Example 877]	< 200	< 500
C[C@]1(C(N)=O)COc2c1cc([C@@](O)(CNC(=O)c1cc(OCCF)c3nn(C4(F)CC4)cc3c1)C(F)(F)F)nc2-c1ccc(F)cc1 [Example 878]	< 200	> 500
Cc1onc2ccc(C(=O)NC[C@](O)(c3cc4c(c(-c5ccc(F)cc5)n3)OC[C@]4(C)C(N)=O)C(F)(F)F)cc12 [Example 887]	< 200	> 500
COc1cc(C(=O)NC[C@](O)(c2cc3c(c(-c4ccc(F)cc4)n2)OC[C@]3(C)C(N)=O)C(F)(F)F)cc2c(C)onc12 [Example 888]	< 200	> 500
C[C@]1(C(N)=O)COc2c1cc([C@@](O)(CNC(=O)c1cc(OCC(F)F)c3nn(C4(F)CC4)cc3c1)C(F)(F)F)nc2-c1ccc(F)cc1 [Example 889]	< 200	> 500
COc1cc(C(=O)NC[C@](O)(c2cc3c(c(-c4ccc(C5CC5)cc4)n2)OC[C@]3(C)C(N)=O)C(F)(F)F)cc2cn(C3CC3)nc12 [Example 891]	< 200	> 500
COc1cc(C(=O)NC[C@](O)(c2cc3c(c(-c4ccc5c(c4)OC(F)(F)O5)n2)OC[C@]3(C)C(N)=O)C(F)(F)F)cc2cn(C3CC3)nc12 [Example 893]	< 200	< 500
COc1cc(C(=O)NC[C@](O)(c2cc3c(c(-c4ccc(OC(F)(F)F)cc4)n2)OC[C@]3(C)C(N)=O)C(F)(F)F)cc2cn(C3CC3)nc12 [Example 898]	< 200	> 500
COc1cc(C(=O)NCC(O)(c2cc3c(c(-c4cnc(C(F)(F)F)nc4)n2)OC[C@]3(C)C(N)=O)C(F)(F)F)cc2cn(C3CC3)nc12 (stereo partly drawn) [Example 899]	> 200	> 500
COc1cc(C(=O)NCC(O)(c2cc3c(c(-c4cnn(C)c4)n2)OC[C@]3(C)C(N)=O)C(F)(F)F)cc2cn(C3CC3)nc12 (stereo partly drawn) [Example 903]	< 200	> 500
COc1cc(C(=O)NC[C@@](O)(c2cc3c(c(-c4cccc(OC(F)F)c4)n2)OC[C@]3(C)C(N)=O)C(F)(F)F)cc2cn(C3CC3)nc12 [Example 917]	< 200	> 500
COc1cc(C(=O)NC[C@](O)(c2cc3c(c(-c4cccc(OC(F)F)c4)n2)OC[C@]3(C)C(N)=O)C(F)(F)F)cc2cn(C3CC3)nc12 [Example 918]	< 200	> 500

The next lines start with the values.

EC50 [1] [nM]	EC50 [2] [nM]	SMILES
> 200	> 500	COc1cc(C(=O)NC[C@](O)(c2nc(-c3ccc(F)cc3)c3c(c2F)[C@](C)(C(N)=O)CO3)C(F)(F)F)cc2cc(Cl)c(C)nc12 [Example 854]
< 200	< 500	COc1cc(C(=O)NC[C@](O)(c2nc(-c3ccc(F)cc3)c3c(c2F)[C@@](C)(C(N)=O)CO3)C(F)(F)F)cc2cc(Cl)c(C)nc12 [Example 855]
< 200	> 500	Cc1nc2c(Cl)cc(C(=O)NC[C@](O)(c3cc4c(c(-c5ccc(F)cc5)n3)OC[C@]4(C)C(N)=O)C(F)(F)F)cc2cc1Cl [Example 883]
< 200	> 500	Cc1nc2c(Cl)cc(C(=O)NC[C@](O)(c3cc4c(c(-c5ccc(F)c(Cl)c5)n3)OC[C@]4(C)C(N)=O)C(F)(F)F)cc2cc1Cl [Example 884]
< 200	< 500	Cc1nc2c(OC3CC3)cc(C(=O)NC[C@](O)(c3cc4c(c(-c5ccc(F)cc5)n3)OC[C@]4(C)C(N)=O)C(F)(F)F)cc2cc1Cl [Example 885]
< 200	< 500	Cc1nc2c(OC3CC3)cc(C(=O)NC[C@](O)(c3cc4c(c(-c5ccc(F)c(Cl)c5)n3)OC[C@]4(C)C(N)=O)C(F)(F)F)cc2cc1Cl [Example 886]
< 200	> 500	COc1cc(C(=O)NC[C@](O)(c2cc3c(c(-c4ccc(C(F)F)cc4)n2)OC[C@]3(C)C(N)=O)C(F)(F)F)cc2cn(C3CC3)nc12 [Example 896]
< 200	< 500	COc1cc(C(=O)NC[C@](O)(c2cc3c(c(-c4ccc(F)cc4F)n2)OC[C@]3(C)C(N)=O)C(F)(F)F)cc2cn(C3CC3)nc12 [Example 901]
< 200	< 500	COc1cc(C(=O)NC[C@](O)(c2cc3c(c(-c4ccc5c(c4)OCO5)n2)OC[C@]3(C)C(N)=O)C(F)(F)F)cc2cn(C3CC3)nc12 [Example 908]
< 200	> 500	COc1cc(C(=O)NCC(O)(c2cc3c(c(-c4ccc(F)c(OC(F)F)c4)n2)OC[C@]3(C)C(N)=O)C(F)(F)F)cc2cn(C3CC3)nc12 (stereo partly drawn) [Example 909]
< 200	< 500	COc1cc(C(=O)NC[C@](O)(c2cc3c(c(-c4ccccc4F)n2)OC[C@]3(C)C(N)=O)C(F)(F)F)cc2cn(C3CC3)nc12 [Example 911]
< 200	< 500	COc1cc(C(=O)NC[C@](O)(c2cc3c(c(-c4cccc(F)c4)n2)OC[C@]3(C)C(N)=O)C(F)(F)F)cc2cn(C3CC3)nc12 [Example 912]
> 200	> 500	COc1cc(-c2nc([C@](O)(CNC(=O)c3cc(OC)c4nn(C5CC5)cc4c3)C(F)(F)F)cc3c2OC[C@]3(C)C(N)=O)ccc1F [Example 913]
< 200	> 500	COc1cc(-c2nc([C@@](O)(CNC(=O)c3cc(OC)c4nn(C5CC5)cc4c3)C(F)(F)F)cc3c2OC[C@]3(C)C(N)=O)ccc1F [Example 914]
< 200	< 500	COc1cc(C(=O)NC[C@](O)(c2cc3c(c(-c4ccc(F)c(F)c4F)n2)OC[C@]3(C)C(N)=O)C(F)(F)F)cc2cn(C3CC3)nc12 [Example 915]
< 200	< 500	COc1cc(C(=O)NCC(O)(c2cc3c(c(-c4cc(F)c(F)c(F)c4)n2)OC[C@]3(C)C(N)=O)C(F)(F)F)cc2cn(C3CC3)nc12 (stereo partly drawn) [Example 916]
> 200	> 500	COc1cc(C(=O)NC[C@@](O)(c2cc3c(c(-c4ccc(OC(F)F)c(F)c4)n2)OC[C@]3(C)C(N)=O)C(F)(F)F)cc2cn(C3CC3)nc12 [Example 919]
< 200	< 500	COc1cc(C(=O)NC[C@](O)(c2cc3c(c(-c4ccc(OC(F)F)c(F)c4)n2)OC[C@]3(C)C(N)=O)C(F)(F)F)cc2cn(C3CC3)nc12 [Example 920]
